Source: paper PMC3747139 (PLoS ONE, 2013)
Marks after values point to notes of the source that are not given here.

Tests used:
B16F10 cells = experiment: MTT assay; type: cell-based, human; conditions: Mus musculus, B16-F10, B16F10 cells, 24 h and 48 h, read-out: half maximal inhibitory concentration (IC50)
Method: Normal human cell lines (CRL-2115, CRL-2120) as well as human cancer cell lines (NCM-460, He La, MCF-7, B16F10 and A549) were cultured according to the supplier's recommendations. To study the cytotoxicity of the ligands, after 80% confluence, cells were trypsinized with 0.1% trypsin-EDTA and harvested by centrifugation at 500× g. Serial dilutions of cells were made from 1×10^6 to 1×10^3 cells per ml. The cells were seeded in triplicate in a 96 well plate. The suspended cells were treated with 50 µM, 100 µM, 150 µM, 200 µM, 250 µM and 300 µM of each ligand, at two different time points (24 h and 48 h). Normal as well as tumor cells to which no ligand was added served as control. After incubation, MTT (100 µl, 5 mg mL^−1) solution was added to each well and the cell viability was determined by measuring the ability of cells to transform MTT to a purple coloured formazan dye. The absorbance of samples at 570 nm was measured using a UV-Visible spectrophotometer. Percentage of viable cells was calculated using the formula given below. [drawing 1] Where the OD570 (sample) corresponds to absorbance obtained from the wells treated with ligands and the OD570 (control) represents the absorbance from the wells in which no ligand was added.

B16F10 melanoma cells = experiment: Preclinical study: tumor size in tumor-induced mice; type: in vivo; conditions: C57BL6/J mice with B16F10 tumor; 200 µM L1, 125 µM L2, 50 µM L3; end of experiment
Method: C57BL6/J mice were used from the animal house facility located at CCMB (Hyderabad, India). All animal experimental studies were carried out in strict accordance with the recommendations in the guide for the care and use of laboratory animals of Centre for Cellular and Molecular Biology (CCMB). All the animal experimental protocols were approved by the Institutional Animal Ethical Committee (IAEC) of Centre for Cellular and Molecular Biology (CCMB with Permit number: CPCSEA 20/1999, Ministry of Environment and Forest, Government of India).The protocol was approved by the Institutional Animal Ethical Committee (IAEC) of CCMB (Protocol number: IAEC 16/2012). All the surgery was performed under sodium pentobarbital anaesthesia, and all efforts were made to minimize suffering. C57BL6/J mice, 6–8 weeks old, were subcutaneously injected with 2×10^5 B16F10 melanoma cells, in the […] region. After the tumor attained a size of 500–1000 mm^3 (≈9 days following cancer cell implantation), mice were grouped and treated as follows.
Group (i) was treated with vehicle control (4 mice), group (ii) with 200 µM of L1 (4 mice), group (iii) with 125 µM of L2 (4 mice) and group (iv) with 50 µM of L3 (4 mice). These experiments were repeated thrice and mean values were considered. Size of tumor was measured every day at a fixed time. The tumor sizes were calculated using the formula (0.5 ab^2), where ‘a’ was the largest dimension and ‘b’ was the smallest dimension of the tumor. The experiment was terminated when the average tumor volume of the control/treated group was 10000–12000 mm^3.

QF DNA = experiment: Stop assay (inhibition of in vitro DNA synthesis) with QF DNA; type: biochemical; conditions: for ligand concentration range of complete / maximum inhibition of DNA synthesis: 5 µM QF DNA; for percentage of DNA synthesis inhibition with QF DNA: at the respective half maximal inhibitory concentration; for Ki: competitive inhibition against dNTPs, Taq polymerase, read-out: inhibition constant (Ki), Cheng-Prusoff equation
Method: The G-quadruplex structure forming region of QF oligonucleotide is shown in bold letters.
To the PCR reaction mixture (25 µl) containing 10 mM Tris-HCl, pH 8.3, with 50 mM KCl, 1.5 mM Mg(OAc)2, 5 µM of each oligonucleotide, 1 mM dNTPs, 5 units of Taq polymerase, L1, L2, L3 were added at various concentrations (50 µM, 100 µM, 150 µM, 200 µM), and PCR reactions were performed. PCR mixture without any ligand was considered as control. The primers were 5′ end-labelled with [γ-^32P] ATP using 1 µl of polynucleotide kinase and 5 µl of 10× kinase buffer and the contents were incubated at 37°C for 5 min. Stop assay was performed using an ABI thermal cycler. Initial denaturation was done at 94°C for 3 min, followed by 20 repeated cycles each having 94°C for 30 sec, 58°C for 30 sec, and 72°C for 30 sec. After PCR, 5 µl of the amplified product was loaded on a 12% non-denaturing polyacrylamide gel with 1×TBE. The in vitro DNA synthetic band intensity was measured using Bio Rad Gel Doc XR+system (USA). The band intensity of the PCR product obtained with no ligand was taken as control for all the quadruplex forming DNA samples (QF DNA). Percentage of DNA synthesis inhibition was calculated using equation 1, whereas, inhibition constant, Ki (using Cheng-Prusoff equation) for each ligand was calculated by using equation 2. [drawing 2] (1)

[1] = test system: telomerase reverse transcriptase (TERT); experiment: Western blot of telomerase expression in tumor tissues; type: in vivo, C57BL6/J mice; conditions: tumor tissue of tumor-induced mice, 216 h of treatment
Method: Western blot analysis was carried out to study the expression of telomerase in ligand treated as well as untreated tissues of tumor-induced mice. Total proteins were extracted from the tumor tissues into solubilisation buffer (7 M urea, 2 M thiourea, 4% CHAPS, 18 mM Tris–HCl, 14 mM Trizma base, 2 tablets EDTA protease inhibitor, 0.2% Triton-X, 50 mM DTT) following homogenization and sonication. Extracted proteins were quantified against BSA standard using an Amido black assay method. 40 µg of total protein obtained from different time points (48 h, 72 h and 216 h) were electrophoresed on a 10% SDS-PAGE and transferred onto a PVDF membrane using wet-transfer method. Immunoblot analysis of the telomerase reverse transcriptase (TERT) expression was performed using anti-TERT antibody (Pierce, Thermo Scientific) as primary antibody and anti-rabbit HP conjugated secondary antibodies (Pierce, Thermo Scientific). The immuno- blots were scanned using the ECL detection method to estimate the telomerase expression levels in the tissues of tumor-induced mice. The endogenous β-actin expression level was considered as control.

HQF DNA [d(T2AG3)4] = experiment: SYBR Green melting study with HQF DNA; type: binding, human; conditions: for Tm of HQF DNA with ligand: 5 µM HQF DNA, 1 µM ligand, HQF DNA alone 27°C; for Tm: melting temperature of HQF DNA (5 µM) in presence of 1 µM ligand
Method: When quadruplex DNA melts to form ssDNA structure, SG fluorescence intensity gradually reduces as SG has no binding to ssDNA. Each time, 5 µM of HQF DNA [d(T2AG3)4)], 5 µM of dsDNA (prepared by mixing equal concentration of poly-dA-dT and poly-dT-dA), 5 µM ssDNA ( poly dT alone) and 1 µM of each ligand was incubated at 4°C for 16 h, and used for melting studies. […] Affinity, stoichiometry and thermodynamic parameters for quadruplex-ligand complex were studied with 60 µM of ligand and 10 µM of HQF DNA using Microcal VP-ITC (Northampton, MA, USA). Ligand addition to G-quadruplex DNA was made every 180 seconds. Titration experiments were performed thrice and blank correction was made each time to minimize error.

SMILES | IC50 (B16F10 cells) | tumor size (B16F10 melanoma cells) | ligand concentration range of complete / maximum inhibition of DNA synthesis (QF DNA) | percentage of DNA synthesis inhibition with QF DNA (QF DNA) | Ki (QF DNA) | percentage of reduction of telomerase expression [1] | Tm of HQF DNA with ligand (HQF DNA [d(T2AG3)4]) | Tm (HQF DNA [d(T2AG3)4])
Cc1cn([C@H]2C[C@H](N=[N+]=[N-])[C@@H](CO)O2)c(=O)[nH]c1=O [Ligand L1, 1-(4-azido 5-(hydroxylmethyl)tetrahydrofuran-2-yl)-5-methyl pyrimidi-ne-2,4(1H,3H)-dione, reference compound] | ~200 µM | 6000–8000 mm^3 | 150 to 200 µM | 84% | 2.94 µM | 80% | 28 °C | 28 ^o C
Cc1cn([C@H]2C[C@H](n3cc(-c4ccccc4)nn3)[C@@H](CO)O2)c(=O)[nH]c1=O [Ligand L2] | ~125 µM | 6000–8000 mm^3 | 150 to 200 µM | 91% | 1.84 µM | 88% | 42 °C | 42 ^o C
Cc1cn([C@H]2C[C@H](n3cc(-c4ccc(Cl)cc4)nn3)[C@@H](CO)O2)c(=O)[nH]c1=O [Ligand L3, 1-(4-(4-(4-chlorophenly)-1H-1,2,3-triazole-1-yl)-5-(hydroxymethyl)tetrahydrofuran-2-yl)-5-methylpyrimidine-2,3(1H,3H)-dione] | 50 µM | ≈ 4500 mm^3 | 50 to 100 µM | 94% | 0.735 µM | 95% | 52 °C | 52 ^o C
